Columns and labels:
Format in all cases: in vivo
[1] = system: Verconica persica (VERPE); experiment: Pre-emergence herbicidal action against VERPE
Summary of the method: (§1)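 Application rates ran to 320 g/ha or lower, with several dosages tested on the same weeds. The compound, as wettable powder or emulsion concentrate, is sprayed pre-emergence onto soil over sown seeds; greenhouse growth follows, and effect is rated visually after roughly 3 weeks.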

[2] = system: Verconica persica (VERPE); experiment: Post-emergence herbicidal action against VERPE
Summary of the method: (§2)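 Values are percent visual activity (0% like control, 100% plants dead) after about 3 weeks in the greenhouse. Treatment: post-emergence spray at one-leaf stage, 600 l/ha spray volume, 0.5% additive, doses 320 g/ha or lower.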

[3] = system: Matricaria inodora (MATIN); experiment: Post-emergence herbicidal action against MATIN
Summary of the method: as §2

[4] = system: Polygonum convolvulus (POLCO); experiment: Pre-emergence herbicidal action against POLCO
Summary of the method: as §1

Viola tricolor (VIOTR) = experiment: Post-emergence herbicidal action against VIOTR
Summary of the method: as §2

[5] = system: Alopecurus myosuroides (ALOMY); experiment: Pre-emergence herbicidal action against ALOMY; conditions: scored visually after about 3 weeks, 100% = plants have died
Summary of the method: as §1

Setaria viridis (SETVI) = experiment: Post-emergence herbicidal action against SETVI
Summary of the method: as §2

Avena fatua (AVEFA) = experiment: Pre-emergence herbicidal action against AVEFA; conditions: visual scoring after about 3 weeks vs untreated controls
Summary of the method: as §1

[6] = system: Abutilon theophrasti (ABUTH); experiment: Post-emergence herbicidal action against ABUTH; conditions: visual rating about 3 weeks after treatment vs untreated controls (100% = plants have died, 0% = like control plants)
Summary of the method: as §2

[7] = system: Amaranthus retroflexus (AMARE); experiment: Post-emergence herbicidal action against AMARE
Summary of the method: as §2

[8] = 80 g/ha, visual rating about 3 weeks after treatment vs untreated controls (100% = plants have died, 0% = like control plants)
[9] = 320 g/ha, visual rating about 3 weeks after treatment

Row | Structure (SMILES) | Pre-emergence action against VERPE in % ([1]; dosage 80 g/ha) [%] | Pre-emergence action against VERPE in % ([1]; dosage 320 g/ha) [%] | Post-emergence action against VERPE in % ([2]; 320 g/ha, VERPE) [%] | Post-emergence action against VERPE in % ([2]; dosage 80 g/ha) [%] | Post-emergence action against MATIN in % ([3]; dosage 320 g/ha) [%] | Pre-emergence action against POLCO in % ([4]; dosage 80 g/ha) [%] | Pre-emergence action against POLCO in % ([4]; dosage 320 g/ha) [%] | Post-emergence action against VIOTR in % (Viola tricolor (VIOTR); 80 g/ha) [%] | Post-emergence action against VIOTR in % (Viola tricolor (VIOTR); 320 g/ha) [%] | Pre-emergence action against ALOMY ([5]; 80 g/ha) [%] | Pre-emergence action against ALOMY ([5]; 320 g/ha) [%] | Post-emergence action against SETVI in % (Setaria viridis (SETVI); dosage 80 g/ha) [%] | Post-emergence action against SETVI in % (Setaria viridis (SETVI); dosage 320 g/ha) [%] | Pre-emergence action against AVEFA in % (Avena fatua (AVEFA); 80 g/ha) [%] | Pre-emergence action against AVEFA in % (Avena fatua (AVEFA); 320 g/ha) [%] | Post-emergence action against ABUTH in % ([6]; 80 g/ha) [%] | Post-emergence action against ABUTH in % ([6]; 320 g/ha) [%] | Post-emergence action against AMARE in % [7, 8] [%] | Post-emergence action against AMARE in % [7, 9] [%] | Post-emergence action against MATIN in % ([3]; dosage 80 g/ha) [%]
1 | C[C@@H](Oc1nn(-c2ncccc2F)c(-c2ccc(F)nc2)c1C1CC1)C(=O)O [Example I-342] | 90 | 100 | 90 | 90 | 100 | 90 | 100 | 90 | 90 | 100 | 100 | 90 | 90 | 90 | 100 | 80 | 90 | 90 | 90 | 
2 | COC(=O)C(C)NC(=O)[C@@H](C)Oc1nn(-c2ccccn2)c(-c2cncc(F)c2)c1Br (some centres unmarked) [Example I-190] | 80 | 100 | 90 | 80 | 80 | 90 | 90 | 80 | 90 | 80 | 90 | 80 | 80 |  | 90 | 80 | 80 |  | 80 | 
3 | COC(=O)CNC(=O)[C@@H](C)Oc1nn(-c2ccccn2)c(-c2cncc(F)c2)c1Br [Example I-187] | 90 | 90 | 90 | 90 | 80 | 90 | 90 | 80 | 90 | 90 | 100 |  | 80 |  | 90 |  | 80 |  |  | 
4 | COC(=O)[C@@H](C)COC(=O)COc1nn(-c2ccccn2)c(-c2cncc(F)c2)c1Br [Example I-194] |  | 90 | 80 |  |  | 80 | 100 | 80 | 80 | 80 | 100 | 90 | 90 | 80 | 90 |  | 80 | 80 | 90 | 
5 | O=C(O)COc1nn(-c2ncccc2F)c(-c2ccc(F)nc2)c1Br [Example I-17] |  | 100 | 80 |  |  | 90 | 100 | 80 | 80 | 100 | 100 | 80 | 80 | 80 | 100 |  |  |  |  | 
6 | COC(=O)COc1nn(-c2ncccc2F)c(-c2cncc(F)c2)c1Br [Example I-16] |  | 90 | 90 | 80 | 80 | 90 | 90 | 80 | 80 | 100 | 100 | 80 | 80 |  | 90 |  |  |  | 80 | 
7 | O=C(O)COc1nn(-c2nc(F)ccc2F)c(-c2cncc(F)c2)c1C1CC1 [Example I-148] | 90 | 100 | 80 | 80 | 80 | 80 | 90 | 80 | 80 | 100 | 100 | 80 | 80 | 80 | 90 |  |  |  |  | 80
8 | C[C@@H](Oc1nn(-c2ncccc2F)c(-c2ccc(F)nc2)c1Br)C(=O)O [Example I-18] | 90 | 100 |  |  | 80 | 100 | 100 |  | 80 | 100 | 100 | 80 | 80 | 90 | 100 |  | 80 |  |  | 80
9 | COC(=O)COc1nn(-c2ncccc2F)c(-c2cncc(F)c2)c1C1CC1 [Example I-167] | 100 | 100 | 80 | 80 |  | 90 | 90 | 80 | 80 | 90 | 100 |  | 80 | 90 | 90 | 80 | 80 | 80 | 80 | 
10 | COC(=O)[C@@H](C)Oc1nn(-c2ccccn2)c(-c2cncc(F)c2)c1Cl [Example I-189] | 90 | 100 | 90 | 90 | 90 | 100 | 100 | 90 | 90 | 80 | 90 | 90 | 90 | 90 | 90 |  |  |  |  | 90
11 | O=C(O)COc1nn(-c2ncccc2F)c(-c2cncc(F)c2)c1C1CC1 [Example I-175] | 100 | 100 | 80 | 80 |  | 90 | 90 | 80 | 80 | 100 | 100 |  | 80 |  | 90 | 80 | 80 | 80 | 80 | 
12 | C[C@@H](Oc1nn(-c2nc(F)ccc2F)c(-c2cncc(F)c2)c1C1CC1)C(=O)O [Example I-180] | 100 | 100 | 90 | 80 | 90 | 90 | 100 | 80 | 80 | 90 | 100 | 80 | 90 | 90 | 90 |  |  |  | 90 | 
13 | CCOC(=O)COc1nn(-c2nc(F)ccc2F)c(-c2cncc(F)c2)c1C1CC1 [Example I-149] |  | 100 | 80 |  | 90 | 80 | 90 | 80 | 80 | 90 | 100 | 80 | 80 | 80 | 90 |  |  |  |  | 80
14 | COC(=O)C(C)COC(=O)C(C)Oc1nn(-c2ccccn2)c(-c2ccc(F)nc2)c1Cl (centres unmarked) [Example I-291] |  | 80 | 80 |  |  | 80 | 90 | 80 | 80 | 100 | 100 | 80 | 80 | 80 | 90 |  | 80 | 80 | 80 | 
